How the values were obtained:
[1] = tested on: androgen dependent signaling; test: Hershberger assay; assay type: in vivo, rat; conditions: castrated rats, mean ± SD (n=6)
Procedure: The effect of AR antagonists on androgen dependent signaling in vivo was assessed using the Hershberger assay. In this assay, peripubertal castrated male Sprague-Dawley rats were administered AR antagonists described herein in the presence of testosterone (0.4 mg/kg testosterone propionate) and the weights of androgen dependent organs measured. Dosing was continued for 10 days and measurements taken 24 h after the last dose. The extent of antagonism of AR and consequent inhibition of organ growth was evaluated by comparison to the castration control. Compounds of Formula (I) were dosed orally QD and an endpoint assessment made by change in weight of 5 androgen sensitive organs (ASO): Paired Cowper's Glands (CG), Seminal Vesicles with Fluids and Coagulating Glands (SVCG), Glans Penis (GP), Ventral Prostate (VP) and Levator Ani-Bulbocavernosus Complex (LABC)). According to assay guidelines, statistically significant suppression of ASO is required in 2 of 5 organs for a compound to be classified as an anti-androgen (analysis was performed by t-test/Mann-Whitney).
Compounds defined herein were administered at the indicated dose (mg/kg) and flutamide (FT), positive control, at 3 mg/kg. All compounds were co-administered with testosterone propionate (TP, 0.4 mg/kg) which was also administered alone, untreated control, (castrated only rats served as the control for complete androgen blockade). A statistically significant change in ASO achieved in at least 2 of 5 organs was indicative of an active compound.

[2] = target: T1, AR T877A (Homo sapiens, UniProt P10275, T878A); test: Luciferase transcriptional reporter assay, mutant AR, HepG2, antagonist mode; assay type: cell-based; conditions: HepG2, 90 pM R1881, 48 hours; * denotes incomplete inhibition (otherwise 100%); read-out: Antagonism; IC50, AR construct T877A
T1 construct: expressed in transfected cells; host or cells: HepG2
T1 sequence (P10275 1-920 T878A): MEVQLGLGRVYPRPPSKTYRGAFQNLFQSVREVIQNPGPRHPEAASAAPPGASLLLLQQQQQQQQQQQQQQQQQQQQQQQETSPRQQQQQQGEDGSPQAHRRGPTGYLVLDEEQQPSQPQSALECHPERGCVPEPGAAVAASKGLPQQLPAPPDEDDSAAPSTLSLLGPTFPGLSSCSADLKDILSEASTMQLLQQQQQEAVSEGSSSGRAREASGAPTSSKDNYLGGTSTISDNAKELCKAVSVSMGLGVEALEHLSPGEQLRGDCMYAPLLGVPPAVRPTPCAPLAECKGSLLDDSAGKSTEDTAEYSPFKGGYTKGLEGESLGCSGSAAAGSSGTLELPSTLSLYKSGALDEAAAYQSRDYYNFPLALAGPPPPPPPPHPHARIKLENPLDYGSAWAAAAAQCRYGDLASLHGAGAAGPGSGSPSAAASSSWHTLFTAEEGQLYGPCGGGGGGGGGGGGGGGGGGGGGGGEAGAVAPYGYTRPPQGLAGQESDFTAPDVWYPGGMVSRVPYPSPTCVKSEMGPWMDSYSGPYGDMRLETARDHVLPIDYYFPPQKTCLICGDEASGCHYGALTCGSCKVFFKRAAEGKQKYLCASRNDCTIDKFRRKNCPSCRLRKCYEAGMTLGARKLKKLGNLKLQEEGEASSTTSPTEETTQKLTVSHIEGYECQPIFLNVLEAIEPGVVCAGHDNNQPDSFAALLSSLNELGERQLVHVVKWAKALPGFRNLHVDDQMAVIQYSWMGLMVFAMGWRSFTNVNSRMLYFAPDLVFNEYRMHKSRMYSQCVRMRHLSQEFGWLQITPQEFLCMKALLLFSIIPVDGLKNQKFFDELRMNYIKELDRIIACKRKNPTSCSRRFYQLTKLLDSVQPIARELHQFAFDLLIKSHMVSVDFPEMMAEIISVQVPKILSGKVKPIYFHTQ
Procedure: HepG2 cells were maintained in EMEM supplemented with 10% FBS. One day before transfection, the media was changed to EMEM with 10% CSS. T-150 flasks were transiently transfected using 120 μL Lipofectamine 2000 (Life Technologies), 30 μg mutant cDNA (expression vector)—mutant cDNA tested were L701H, T877A, W741C and H874Y—and 40 μg 4×ARE-Luciferase (reporter vector) in OptiMEM and the flasks were incubated overnight. Cells were then trypsinized, counted and resuspended at 500,000 cells/mL. For agonist mode, the compounds of Formula (I) are serially diluted and 50 μL of the compound added per well. 50 μL of the cells are added to each well and incubated for 48 hours. For antagonist mode, a final concentration of 90 pM R1881 was added to the diluted compounds and incubated for 48 hours. The plates were then assayed using SteadyGlo and read on the Envision. Percent Stimulation and Inhibition is determined and analyzed using GraphPad Prism.
All values are calculated relative to the activity of R1881 induced androgen receptor activity (n≧3).

[3] = 30 mg/kg orally QD 10 days with testosterone propionate 0.4 mg/kg
[4] = 3 mg/kg orally QD 10 days with testosterone propionate 0.4 mg/kg
[5] = 10 mg/kg orally QD 10 days with testosterone propionate 0.4 mg/kg

| SMILES | ASO Organ Growth (% of TP control) SVCG [1, 3] | ASO Organ Growth (% of TP control) VP [1, 3] | IC50 [2] [µM] | ASO Organ Growth (% of TP control) SVCG [1, 4] | ASO Organ Growth (% of TP control) VP [1, 4] | ASO Organ Growth (% of TP control) SVCG [1, 5] | ASO Organ Growth (% of TP control) VP [1, 5] |
| --- | --- | --- | --- | --- | --- | --- | --- |
| N#Cc1ncc(N2C(=O)C3(CCC3)N(c3ccc(OC4CCNCC4)cc3)C2=S)cc1C(F)(F)F [Cpd 35, 5-[5-oxo-8-[4-(4-piperidyloxy)phenyl]-7-thioxo-6,8-diazaspiro[3.4]octan-6-yl]-3-(trifluoromethyl)pyridine-2-carbonitrile] | 28.1 ± 19.5 % of TP control | 25.7 ± 22.9 % of TP control | 3.59 | – | – | – | – |
| N#Cc1ncc(N2C(=O)C3(CCC3)N(c3ccc(C(=O)NCCCO)c(F)c3)C2=S)cc1C(F)(F)F [Cpd 40, 4-[6-[6-cyano-5-(trifluoromethyl)-3-pyridyl]-5-oxo-7-thioxo-6,8-diazaspiro[3.4]octan-8-yl]-2-fluoro-N-(3-hydroxypropyl)benzamide] | – | – | 7.51 | – | – | – | – |
| CN1CCC(Oc2ccc(N3C(=S)N(c4cnc(C#N)c(C(F)(F)F)c4)C(=O)C34CCC4)cc2)CC1 [Cpd 85, 5-[8-[4-[(1-methyl-4-piperidyl)oxy]phenyl]-5-oxo-7-thioxo-6,8-diazaspiro[3.4]octan-6-yl]-3-(trifluoromethyl)pyridine-2-carbonitrile] | 8.5 ± 14.7 % of TP control | 13.2 ± 19.2 % of TP control | – | 67.3 ± 20.2 % of TP control | 72.3 ± 18.5 % of TP control | 31.6 ± 37.7 % of TP control | 37.4 ± 25.6 % of TP control |
